From patent publication US10179771B2 (GALAPAGOS NV, priority 2014, dated 2019) come the findings set out here.

Molecules are shown by their SMILES.

For the first assay, the target named is T1, Recombinant human JAK2 catalytic domain (Homo sapiens, UniProt O60674).
T1 construct: Recombinant human JAK2 catalytic domain (amino acids 808-1132; catalog number PV4210); GST; purchased Invitrogen PV4210
T1 sequence (O60674 808-1132): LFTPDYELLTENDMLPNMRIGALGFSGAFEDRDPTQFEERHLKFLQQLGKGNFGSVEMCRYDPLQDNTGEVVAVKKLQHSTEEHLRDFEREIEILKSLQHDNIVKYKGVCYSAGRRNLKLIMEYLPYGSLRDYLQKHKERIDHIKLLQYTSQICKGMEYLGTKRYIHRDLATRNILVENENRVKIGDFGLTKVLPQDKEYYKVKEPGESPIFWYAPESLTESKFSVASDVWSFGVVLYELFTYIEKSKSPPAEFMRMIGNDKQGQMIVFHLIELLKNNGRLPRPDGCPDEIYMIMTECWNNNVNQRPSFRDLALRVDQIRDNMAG
Briefly: JAK2 inhibition assay (polyGT substrate / Ulight-JAK1 peptide assay). The settings on record: Comparative Compounds (Table VIII). The class given is biochemical. How it is done:
Recombinant human JAK2 catalytic domain (amino acids 808-1132; catalog number PV4210) was purchased from Invitrogen. 0.025 mU of JAK2 is incubated with […] polyGT substrate (Sigma catalog number P0275) in kinase reaction buffer (5 mM MOPS pH 7.5, 9 mM MgAc, 0.3 mM EDTA, 0.06% Brij and 0.6 mM DTT, 1 μM non-radioactive ATP, 0.25 μCi ^33P-gamma-ATP (GE Healthcare, catalog number AH9968) final concentrations) with or without 5 μL containing test compound or vehicle (DMSO, 1% final concentration), in a total volume of 25 μL, in a polypropylene 96-well plate (Greiner, V-bottom). After 90 min at 30° C., reactions are stopped by adding of 25 μL/well of 150 mM phosphoric acid. All of the terminated kinase reaction is transferred to prewashed (75 mM phosphoric acid) 96 well filter plates (Perkin Elmer catalog number 6005177) using a cell harvester (Perkin Elmer). Plates are washed 6 times with 300 μL per well of a 75 mM phosphoric acid solution and the bottom of the plates is sealed. 40 μL/well of Microscint-20 is added, the top of the plates is sealed and readout is performed using the Topcount (Perkin Elmer). Kinase activity is calculated by subtracting counts per min (cpm) obtained in the presence of a positive control inhibitor (10 μM staurosporine) from cpm obtained in the presence of vehicle. The ability of a test compound to inhibit this activity is determined as:
[formula] • RFU test compound=RFU determined for sample with test compound present • RFU control=RFU determined for sample with positive control inhibitor • RFU vehicle=RFU determined in the presence of vehicle
Dose dilution series are prepared for the compounds enabling the testing of dose-response effects in the JAK2 assay and the calculation of the IC50 for each compound. Each compound is routinely tested at concentration of 20 μM followed by a 1/3 serial dilution, 8 points (20 μM-6.67 μM-2.22 μM-740 nM-247 nM-82 nM-27 nM-9 nM) in a final concentration of 1% DMSO. When potency of compound series increased, more dilutions are prepared and/or the top concentration is lowered (e.g. 5 μM, 1 μM).
Recombinant human JAK2 (catalytic domain, amino acids 866-1154; catalog number PV4210) was purchased from Invitrogen. 0.0125 mU of JAK2 was incubated with 25 nM Ulight-JAK1 (tyr1023) peptide (Perkin Elmer catalog number TRF0121) in kinase reaction buffer (25 mM HEPES pH7.0, 0.01% Triton X-100, 7.5 mM MgCl2, 2 mM DTT, 7.5 μM ATP) with or without 4 μL containing test compound or vehicle (DMSO, 1% final concentration), in a total volume of 20 μL, in a white 384 Opti plate (Perkin Elmer, catalog number 6007290). After 60 min at room temperature, reactions were stopped by adding 20 μL/well of detection mixture (1× detection buffer (Perkin Elmer, catalog number CR97-100C), 0.5 nM Europium-anti-phosphotyrosine (PT66) (Perkin Elmer, catalog number AD0068), 10 mM EDTA). Readout is performed using the Envision with excitation at 320 nm and measuring emission at 615 nm (Perkin Elmer). Kinase activity was calculated by subtracting relative fluorescence units (RFU) obtained in the presence of a positive control inhibitor (10 μM staurosporine) from RFU obtained in the presence of vehicle. The ability of a test compound to inhibit this activity was determined as: Percentage inhibition=((RFU determined for sample with test compound present−RFU determined for sample with positive control inhibitor) divided by (RFU determined in the presence of vehicle−RFU determined for sample with positive control inhibitor))*100.
Dose dilution series are prepared for compound enabling the testing of dose-response effects in the JAK2 assay and the calculation of the IC50 for the compound. Each compound is routinely tested at concentration of 20 μM followed by a 1/5 serial dilution, 10 points in a final concentration of 1% DMSO. When potency of compound series increases, more dilutions are prepared and/or the top concentration are lowered (e.g. 5 μM, 1 μM). […]
For the compound `CN(c1cc2c(cn1)ncn2C)c1ccc(C#N)cc1F` [D, reference compound], the IC50 was more than 500 nM.

Staying with this assay, now noted: Illustrative Compounds of the invention (Table VII).
`CCc1cc(C(N)=O)ncc1N(C)c1cc(NC(=O)C2CC2)c2ncn(C)c2c1` [Cpd 24, 5-((4-(cyclopropanecarboxamido)-1-methyl-1H-benzo[d]imidazol-6-yl)(methyl)amino)-4-ethylpicolinamide]: the IC50 lay in the range of 0.1 to 50 nM.

Turning to `CCc1cc(C(N)=O)ncc1N(C)c1cc(NC(=O)[C@H]2C[C@H]2F)c2ncn(C)c2c1` [Cpd 25, 4-ethyl-5-((4-((1R,2R)-2-fluorocyclopropanecarboxamido)-1-methyl-1H-benzo[d]imidazol-6-yl)(methyl)amino)picolinamide], the IC50 was in the range of 0.1 to 50 nM.

`Cc1cc(S(C)(=O)=O)ccc1N(C)c1cc(NC(=O)[C@H]2C[C@H]2F)c2ncn(C)c2c1` [Cpd 26, (1R,2R)-N-[6-(N,2-dimethyl-4-methylsulfonyl-anilino)-1-methyl-benzimidazol-4-yl]-2-fluoro-cyclopropanecarboxamide]: the IC50 lay in the range of 50 to 100 nM.

On to `CCS(=O)(=O)c1ccc(N(C)c2cc(NC(=O)[C@H]3C[C@H]3F)c3ncn(C)c3c2)c(C)c1` [Cpd 27, (1R,2R)-N-[6-(4-ethylsulfonyl-N,2-dimethyl-anilino)-1-methyl-benzimidazol-4-yl]-2-fluoro-cyclopropanecarboxamide], for which the IC50 is 100 to 500 nM.

With `Cc1cc(C#N)ncc1Oc1cc(N)c2ncn(C)c2c1` [Cpd 28, 5-(7-amino-3-methyl-benzimidazol-5-yl)oxy-4-methyl-pyridine-2-carbonitrile], the IC50 was more than 500 nM.

In the case of `CCc1cc(S(C)(=O)=O)ncc1Oc1cc(NC(=O)C2CC2)c2ncn(C)c2c1` [Cpd 29, N-[6-[(4-ethyl-6-methylsulfonyl-3-pyridyl)oxy]-1-methyl-benzimidazol-4-yl]cyclopropanecarboxamide], the half-inhibitory concentration (IC50) was in the range of 100 to 500 nM.

For `Cc1cc(C(N)=O)ncc1Oc1cc(NC(=O)[C@H]2C[C@H]2F)c2ncn(C)c2c1` [Cpd 32, 5-[7-[[(1R,2R)-2-fluorocyclopropanecarbonyl]amino]-3-methyl-benzimidazol-5-yl]oxy-4-methyl-pyridine-2-carboxamide], the IC50 is 50 to 100 nM.

As for `CNc1cc(Oc2cnc(C#N)cc2C)cc2c1ncn2C` [Cpd 34, 4-methyl-5-[3-methyl-7-(methylamino)benzimidazol-5-yl]oxy-pyridine-2-carbonitrile], the IC50 is more than 500 nM.

As to `Cc1cc(C#N)ncc1Oc1cc(N(C)C)c2ncn(C)c2c1` [Cpd 35, 5-[7-(dimethylamino)-3-methyl-benzimidazol-5-yl]oxy-4-methyl-pyridine-2-carbonitrile], the IC50 is more than 500 nM.

With `Cc1cc(C#N)ncc1Oc1cc(NC(=O)N2CC(O)C2)c2ncn(C)c2c1` [Cpd 36, N-[6-[(6-cyano-4-methyl-3-pyridyl)oxy]-1-methyl-benzimidazol-4-yl]-3-hydroxy-azetidine-1-carboxamide], the IC50 is more than 500 nM.

For `Cc1cc(C#N)ncc1Oc1cc(NC(=O)N2CCOCC2)c2ncn(C)c2c1` [Cpd 37, N-[6-[(6-cyano-4-methyl-3-pyridyl)oxy]-1-methyl-benzimidazol-4-yl]morpholine-4-carboxamide], the IC50 was more than 500 nM.

Consider `Cc1cc(C#N)ncc1Oc1cc(NC(=O)NC(C)C)c2ncn(C)c2c1` [Cpd 38, 1-[6-[(6-cyano-4-methyl-3-pyridyl)oxy]-1-methyl-benzimidazol-4-yl]-3-isopropyl-urea], for which the IC50 is 100 to 500 nM.

A word on the IC50: it is the concentration needed to halve the response being measured.
